Reference: US20210214303A1, “SCORPION VENOM BENZOQUINONE DERIVATIVES AND USES THEREOF” (priority 2018, published 2021)
Values after ≈ are worked out from the molar mass of the structure shown.

What was measured:
M. tuberculosis = settings: related compounds from the literature (Tran et al. 2004); cited from earlier work
Staphylococcus aureus = test: broth microdilution assay (MIC); type: cell-based; settings: S. aureus, read-out: minimum inhibitory concentration (MIC)
Protocol: FIG. 3D illustrates the determination of the minimal inhibitory concentrations (MICs) of the red and blue 1,4 benzoquinones against Staphylococcus aureus. The MICs determined by the broth microdilution assay are 4 μg/mL for the red 1,4 benzoquinone and 6 μg/mL for the blue 1,4 benzoquinone. Ampicillin was used as a positive control. Each result is reported as the mean±SD.
This difference was confirmed using a broth microdilution assay (FIG. 3D). The minimum inhibitory concentration (MIC) for S. aureus growth was 4 μg/mL for the red 1,4 benzoquinone and 6 μg/mL for the blue 1,4 benzoquinone (FIG. 3D, Table 1). Ampicillin (MIC=0.5 μg/mL) was used as a positive control (ESCMID Eo (2003) Clin. Microbiol. Infect. 9: ix-xv; Pieterse et al., (2010) Brazil. J. Microbiol. 41: 133-145). These compounds were bactericidal at their MICs, killing 90% of S. aureus in 6 h and 99.9% in 24 h (Table 2).

O=C1C=CC(=O)C=C1 [1,4-benzoquinone]
MIC (M. tuberculosis): 25 µg/mL (≈ 231 µM)

O=C1C=CC(=O)c2ccccc21 [1,4-napthoquinone]
MIC (M. tuberculosis): 100 µg/mL (≈ 632 µM)

CC1(C)S[C@@H]2[C@H](NC(=O)[C@H](N)c3ccccc3)C(=O)N2[C@H]1C(=O)O [Ampicillin, reference compound]
MIC (Staphylococcus aureus): 0.5 µg/mL (≈ 1.43 µM)
